Tested on: Streptozotocin (STZ) treated diabetic rats
Experiment: Streptozotocin (STZ) treated diabetic rats: blood glucose, hs CRP, IL-6, adiponectin
Format: in vivo
Conditions: for Blood glucose level: STZ (65 mg/kg) diabetic rats; for Adiponectin / IL-6 / hs CRP: STZ diabetic rats

Work on C[C@H]1O[C@H](O[C@H]2[C@H](O)[C@@H](O)[C@@H](O[C@H]3[C@H](O)[C@@H](O)C(O)O[C@@H]3CO)O[C@@H]2CO)[C@H](O)[C@@H](O)[C@@H]1N[C@H]1C=C(CO)[C@@H](O)[C@H](O)[C@H]1O (stereo partly drawn) [Acarbose] yielded a Blood glucose level (7th Days) of 228.33 ± 19.44 mg/day, a Blood glucose level (14th Days) of 192.74 ± 15.18 mg/day and a Blood glucose level (28th Days) of 157.51 ± 10.24 mg/day. The Adiponectin (7th Days) was 8.87 ± 2.10 µg/mL, the IL-6 (7th Days) was 2.87 ± 0.25 pg/mL and the “hs CRP” value (7th Days) was 6.78 ± 1.52 mg/L. For the same compound, the Adiponectin (14th Days) was 9.65 ± 1.63 µg/mL, the IL-6 (14th Days) was 2.49 ± 0.32 pg/mL and the “hs CRP” value (14th Days) was 5.43 ± 0.75 mg/L. For the same compound, the Adiponectin (28th Days) was 10.23 ± 2.14 µg/mL, the IL-6 (28th Days) was 2.23 ± 0.26 pg/mL and the “hs CRP” value (28th Days) was 4.97 ± 0.87 mg/L.
